Patent US20080221078A1, “Use of a CB1 Antagonist for Treating Side Effects and Negative Symptoms of Schizophrenia” (priority 2005, published 2008)

Columns and labels:
rats = assay: MK-801-induced persistent latent inhibition (conditioned emotional response procedure); type: in vivo, rat
From the text: When the bottle was not present, the hole was covered by a metal lid. Licks were detected by a Campden Instruments drinkometer. The preexposed to-be-conditioned stimulus was a 10 sec, 80 dB, 2.8 kHz tone produced by a Sonalert module. Shock was supplied through the floor by a Campden Instruments shock generator and shock scrambler set at 0.5 mA and 1 sec duration. Equipment programming and data recording were computer controlled.
Water in the test apparatus was given in addition to the daily ration of 1 h given in the home cages.
Shock immediately followed tone termination. The first tone-shock pairing was given 5 min after the start of the session. After the last pairing, rats were left in the experimental chamber for an additional 5 min.
When the rat completed 75 licks the tone was presented for 5 min. The following times were recorded: Time to first lick, time to complete licks 1-50, time to complete licks 51-75 (before tone onset) and time to complete licks 76-100 (after tone onset). Times to complete licks 76-100 were logarithmically transformed to allow parametric analysis of variance. Longer log times indicate stronger suppression of drinking.

Male Sprague-Dawley rats [1] = assay: Antipsychotic induced catalepsy (bar test); details: for olanzapine-induced catalepsy: olanzapine 10 mg/kg ip
Description: (§3) Animals: Male Sprague-Dawley rats (Charles River Laboratories) weighing 267-457 g were used. The animals were housed under standard laboratory conditions as outlined in the NIH Guide for Care and Use of Laboratory Animals. They were maintained on a 12:12 light/dark cycle with tap water and Lab Diet rodent chow ad libitum. Rats were acclimatized to the experimental room for 60 min prior to injections. Procedure: The test for catalepsy consists of placing an individual animal in a white translucent plastic box (26×20×15 cm) with a wooden dowel mounted horizontally 10 cm from the floor and 4 cm from one end of the box. The floor is covered with approximately 1 cm of bedding material. Test animals are transferred from the vivarium in their home cages to the experimental room and are allowed to acclimatize for 60 mins. Five animals are kept in a cage. The animals are transferred into another cage after treatment. […] 30 mins after the second treatment, animals were placed individually in the white translucent plastic boxes and tested for catalepsy following a one minute acclimatization period. A group of five animals are tested at a time. Each treatment group consists of 10 animals.
(§4) At the end of the one minute acclimation period, each animal is gently grasped around the shoulders and under the forepaws, and gently placed on the wooden dowel. The amount of time each rat spends with at least one forepaw on the bar determined for a maximum period of 180 seconds. This is repeated three times.
(§5) Haloperidol was used at the dose of 1 mg/kg.
(§6) Haloperidol was dissolved in distilled water via dilution of a 5 mg/ml stock solution in distilled water. Olanzapine was dissolved in three drops of HCl prior to the addition of distilled water to full volume.

[2] = Antipsychotic induced catalepsy (bar test); details: male, Sprague-Dawley, rat, in vivo, intraperitoneal
Description: as §3, §4, §5, §6

Male Sprague-Dawley rats [3] = assay: Amphetamine-induced locomotion; type: in vivo, rat
Description: (§1) Animals: Male CD-1 mice (Charles River Laboratories) weighing 20-30 g were used. Male Sprague-Dawley rats (Charles River Laboratories) weighing 250-433 g were used. […] Procedure: A standard automated locomotion assay was employed (see, for example: R. Christopher Pierce and Peter Kalivas. (1997) Locomotor Behavior. In: Current Protocols in Neuroscience, Volume 3, 8.1.1-8.1.8. G. P. Taylor, Editor. New York: John Wiley & Sons, Inc.). Horizontal activity was measured by beam breaks of photocells lining the chamber exterior to the activity boxes. The activity was measured for 60 min during spontaneous locomotion or 90 min for the PCP or amphetamine-induced assays. Example 2 was administered per os (po) with a 1 hr pre-treatment. […] PCP or amphetamine was administered ip or subcutaneous (sc), respectively, with no pre-treatment. When pre-treatment time elapsed for each rodent, the activity cage was transferred from its holding rack and placed into its own locomotion chamber. Independent start time is possible with the recording of activity commencing almost immediately. The computer automatically times out each chamber individually when the session has ended. Drugs: Doses of Example 2 for mice were 0.3, 1, 3, and 10 mg/kg, p.o. The lowest dose was not tested in spontaneous locomotion for rats. The three highest doses of Example 2 were tested against PCP-induced and amphetamine-induced locomotion in mice and rats, respectively. The conventional antipsychotic haloperidol was used in co-administration with Example 2 (1, 3, and 10 mg/kg) at the doses of 0.1 and 0.2 mg/kg in mice to reverse PCP-induced locomotion. Haloperidol was co-administered at the dose of 0.3 mg/kg in rats to reverse amphetamine-induced locomotion.
(§2) Phencyclidine and amphetamine were dissolved in distilled water.

Male Sprague Dawley rats = assay: Holeboard test (working memory performance); type: in vivo, rat
From the text: Similarly, a working memory performance in a rat hole board model has been used to measure various cognition deficits. The hole board task is a well-known and widely used assay to measure working and reference memory in rodents. This model utilizes a board with 8 holes, each baited with a food reward, thus taking advantage of the rodent's natural propensity to forage for food. In a modified version, it has now been able to assess improvements in working memory performance without the use of amnestic agents. Male Sprague Dawley rats are allowed to find and consume 4 of the 8 rewards and then removed to the home cage for 2 minutes. They are then returned and allowed to find and consume the remaining 4 rewards. Any returns to holes already visited are considered working memory errors.
Animals: Male Sprague Dawley rats (Charles River) were housed on a 12 hour light/dark cycle, with lights on at 06:00. Rats were maintained at 80% of their normal body weight, with average starting weights at 200-220 grams. Rats were acclimated to the testing chamber (Med-Associates, Inc. hole board in a ventilated, sound-attenuating cubicle) for four 10-minute trials over a two-day period 24 hours prior to drug treatments. The testing chamber contains eight holes, each of which is baited with a food reward (cocoa puff). Procedure: Each experiment was carried over two-three days, with a 3 day (experiment 1), 4 day (experiment 2), and 3 day (experiment 3) washout in between. Thirty two animals were used for each experiment, with each animal pseudo-randomly assigned to treatment groups such that each animal received two of the four-five treatments, with an even distribution of all possible treatment-treatment combinations. There were a total of 16 animals per treatment group. On test days, rats were injected intraperitoneally (i.p.) with N-{1-[bis(4-chlorophenyl)methyl]azetidin-3-yl}-N-(3,5-difluorophenyl)methylsulfonamide (Example 2) (Exp 1: 0.3, 1, or 3 mg/kg; Exp 2: 1, 3 or 10 mg/kg) or vehicle (distilled water with 1% tween). For Exp 3, rats were injected i.p. with risperidone followed by Example 2 (Exp 3: 0.010, 0.10, or 1.0 mg/kg with 3 mg/kg Example 2) or vehicle (0.9% NaCl with 1% tween). The rats were then placed in the test chamber 60 minutes later. After consuming 4 food rewards, the rats were removed from the chamber for 2 minutes and returned to their home cage. They were then returned to the chamber and allowed to retrieve and finish the remaining four rewards, or for a total of 10 minutes. […] The number of visits to holes that they have already visited were noted. Drugs: Doses of Example 2 were 0.3, 1 and 3 mg/kg (experiment 1) and 1, 3 and 10 mg/kg (experiment 2). Example 2 was put into suspension with distilled water (exp 1 & 2) or 0.9% NaCl (exp 3), with the addition of tween 80. Doses of risperidone (antipsychotic, Sigma) were 0.010, 0.10, and 1.0 mg/kg (experiment 3). risperidone was solubilized in 0.9% NaCl with the addition of 1% tween 80,

Male CD-1 mice = assay: PCP-induced locomotion; type: in vivo, mouse
Description: as §1, §2

[4] = tested on: Female Wistar rats on high fat diet; assay: Antipsychotic (olanzapine) induced weight gain
From the text: Animals: Female Wistar rats on high fat diet were used in this Example.

C[C@]12N[C@H](Cc3ccccc31)c1ccccc12 [MK-801, dizocilpine]
latent inhibition (LI) with 40 preexposures and 5 conditioning trials (rats; MK-801 0.05 mg/kg i.p., 30 minutes before conditioning): showed LI in spite of extended conditioning

NCC(=O)O [glycine, Glycine]
MK-801-induced abnormally persistent LI (rats; glycine 0.8 g/kg i.p., 30 minutes prior to conditioning): reversed

O=C(CCCN1CCC(O)(c2ccc(Cl)cc2)CC1)c1ccc(F)cc1 [haloperidol, reference compound]
induction of catalepsy compared to vehicle treated animals (Male Sprague-Dawley rats [1]; haloperidol 1 and 3 mg/kg): significantly induces catalepsy | ED50 at 30 min [2]: 0.64 mg/kg | reversal of locomotor hyperactivity (Male Sprague-Dawley rats [3]; haloperidol 0.3 mg/kg ip): highly significant reversal

N-{1-[Bis(4-chlorophenyl)methyl]azetidin-3-yl}-N-(3,5-difluorophenyl)methylsulfonamide [Example 2]
olanzapine-induced catalepsy (Male Sprague-Dawley rats [1]; Example 2 3 mg/kg orally): significantly reversed | haloperidol-induced catalepsy (Male Sprague-Dawley rats [1]; Example 2 10 mg/kg orally, haloperidol 1 mg/kg ip): significantly reversed | olanzapine-induced catalepsy (Male Sprague-Dawley rats [1]; Example 2 10 mg/kg orally): significantly reversed | number of working memory errors compared to vehicle treated animals (Male Sprague Dawley rats; Experiment 1, 0.3 mg/kg i.p., after 2 minute delay): but not the 0.3 or 1 mg/kg doses | number of working memory errors compared to vehicle treated animals (Male Sprague Dawley rats; Experiment 1, 1 mg/kg i.p., after 2 minute delay): but not the 0.3 or 1 mg/kg doses | number of working memory errors compared to vehicle treated animals (Male Sprague Dawley rats; Experiment 1, 3 mg/kg i.p., after 2 minute delay, p<0.05): significant decrease | number of working memory errors compared to vehicle treated animals (Male Sprague Dawley rats; Experiment 2, 3 mg/kg i.p., after 2 minute delay, p<0.05): significant decrease | number of working memory errors compared to vehicle treated animals (Male Sprague Dawley rats; Experiment 2, 10 mg/kg i.p., after 2 minute delay, p<0.05): significant decrease | number of working memory errors compared to vehicle treated animals (Male Sprague Dawley rats; Experiment 3, 3 mg/kg Example 2 in combination with 0.10 mg/kg risperidone i.p., p<0.05): significant decrease | number of working memory errors compared to vehicle treated animals (Male Sprague Dawley rats; Experiment 3, 3 mg/kg i.p. Example 2 alone, p<0.05): significant decrease | minimum effective dose for improvement in working memory performance (Male Sprague Dawley rats; i.p.): 3 mg/kg | MK801-induced persistent latent inhibition (rats; 1, 3 and 10 mg/kg i.p., 60 minutes prior to pre-exposure and conditioning): reversed | reversal of locomotor hyperactivity induced by PCP (Male CD-1 mice; Example 2 alone 1, 3, and 10 mg/kg p.o.): no significant reversal | effect of co-treatment with haloperidol on PCP-induced locomotion (Male CD-1 mice; haloperidol 0.1 and 0.2 mg/kg ip with Example 2 1, 3, 10 mg/kg p.o.): yielded the same effects whether or not Example 2 was present or absent | effect of co-treatment with olanzapine on PCP-induced locomotion (Male CD-1 mice; olanzapine 0.03 and 0.3 mg/kg ip with Example 2 1, 3, 10 mg/kg p.o.): yielded the same effects whether or not Example 2 was present or absent | weight gain vs. saline controls ([4]; 10 mg/kg Example 2 i.p. with olanzapine 3 mg/kg i.p.): not significant from saline controls | weight vs. saline ([4]; Example 2 alone 10 mg/kg i.p.): no significant effect | weight gain elicited by olanzapine ([4]; co-administration of Example 2 1, 3, and 10 mg/kg i.p. with olanzapine 3 mg/kg i.p.): dose dependent attenuation | reversal of locomotor hyperactivity induced by d-AMPH (Male Sprague-Dawley rats [3]; rats, Example 2 alone 1, 3, and 10 mg/kg p.o.): no significant reversal | effect of co-treatment with haloperidol on amphetamine-induced locomotion (Male Sprague-Dawley rats [3]; rats, haloperidol 0.3 mg/kg ip with Example 2): yielded the same effects whether or not Example 2 was present or absent | effect of co-treatment with olanzapine on amphetamine-induced locomotion (Male Sprague-Dawley rats [3]; rats, olanzapine 1 and 3 mg/kg ip with Example 2): yielded the same effects whether or not Example 2 was present or absent
